According to patent publication US6476076B1 (priority 1999, dated 2002):
Where “and” joins values, the source holds several entries; their conditions need not be identical. Equal values may be shown once. Read-outs that look alike come from different tables or passages of the source.

Key:
[1] = molecular target: T1, CAP-activated channels in cultured neonatal rat dorsal root ganglion (DRG) neurons (Rattus norvegicus, UniProt O35433); format: cell-based; design: key: + = CAP; ++ = 10 CAP; +++ = 100 CAP
T1 construct: extracellular application of the compounds to cultured neonatal rat dorsal root ganglion (DRG) neurons; endogenous in cells; host or cells: primary cultured DRG neurons from 1 or 2 day old neonatal rats
T1 sequence (O35433 whole entry): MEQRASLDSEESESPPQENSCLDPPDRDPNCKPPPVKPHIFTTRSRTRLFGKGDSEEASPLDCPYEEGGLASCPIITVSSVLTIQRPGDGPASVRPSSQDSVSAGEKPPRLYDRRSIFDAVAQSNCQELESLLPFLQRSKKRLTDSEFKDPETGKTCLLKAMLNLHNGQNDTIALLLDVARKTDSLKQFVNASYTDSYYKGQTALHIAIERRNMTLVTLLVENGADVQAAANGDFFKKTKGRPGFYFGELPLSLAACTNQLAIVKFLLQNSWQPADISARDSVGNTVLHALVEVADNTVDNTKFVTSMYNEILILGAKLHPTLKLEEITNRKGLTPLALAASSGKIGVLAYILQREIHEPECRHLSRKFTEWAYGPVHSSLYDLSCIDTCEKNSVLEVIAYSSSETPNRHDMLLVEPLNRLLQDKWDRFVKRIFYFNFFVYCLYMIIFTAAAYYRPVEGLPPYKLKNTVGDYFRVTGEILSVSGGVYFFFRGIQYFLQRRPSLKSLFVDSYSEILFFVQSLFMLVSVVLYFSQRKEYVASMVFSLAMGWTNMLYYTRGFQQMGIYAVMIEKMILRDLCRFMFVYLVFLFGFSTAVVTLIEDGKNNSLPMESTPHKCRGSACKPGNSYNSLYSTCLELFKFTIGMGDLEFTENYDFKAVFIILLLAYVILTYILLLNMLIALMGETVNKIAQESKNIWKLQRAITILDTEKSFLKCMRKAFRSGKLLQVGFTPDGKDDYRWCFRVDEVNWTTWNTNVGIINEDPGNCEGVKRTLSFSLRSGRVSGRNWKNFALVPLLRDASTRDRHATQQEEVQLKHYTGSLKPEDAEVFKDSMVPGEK

[2] = system: PBQ-induced writhing in ICR mice; experiment: animal or person; format: in vivo, mouse; conditions: for Relative Potency (Writhing Test) / Writhing Test ED50: mouse, in vivo; for Writhing Test ED50 / ED50: ip; for ED50: Mus musculus, read-out: Writhing Test ED50
[3] = system: TPA-induced ear edema in ICR mice; conditions: mouse, in vivo
[4] = molecular target: T2, vanilloid receptor (rat spinal cord membrane preparations) (Rattus norvegicus, UniProt O35433); experiment: biochemical; format: binding
T2 construct: determined on membrane preparations from rat spinal cord; from tissue; host or cells: rat spinal cord membranes
T2 sequence (O35433 whole entry): as above

[5] = system: DRG neurons; experiment: cells; format: cell-based; conditions: Rattus norvegicus, DRG neuron, 10 min, read-out: 45Ca Influx EC50
[6] = system: acetic acid-induced writhing in ICR mice; experiment: animal or person; format: in vivo, mouse; conditions: for ED50: Mus musculus, ip, read-out: Writhing Test ED50
[7] = system: rat eye (eye-wiping response); conditions: in vivo

| Molecule | Activations [1] | Relative Potency (Writhing Test) [2] | Writhing Test ED50 [2] [µg/kg] | Ear Edema Assay ID50 [3] [μg/ear] | Relative Potency (Ear Edema Assay) [3] | further results |
| --- | --- | --- | --- | --- | --- | --- |
| 2-(4-Chlorobenzyl)-3-{[(4-hydroxy-3-methoxybenzyl)amino]carbothioyl}propyl Pivalate [7c-I] | ++ | 60 | 5 | 22 | 0.14 | Ki ([4]; read-out: Affinities (Ki)): 54.4 nM |
| COc1cc(CNC(=S)NCC(COC(=O)C(C)(C)C)Cc2ccc(C)c(C)c2)ccc1OCCN (stereo not shown) [36a, 2,2-Dimethyl Propionic Acid 2-{3-[4-(2-Aminoethoxy)-3-methoxybenzyl]thioureido Methyl}-3-(3,4-dimethylphenyl)propyl Ester] | – | – | – | – | – | EC50 [5]: 83 ± 12 nM; ED50 [6]: 0.014 mg/kg |
| 2-(3,4-Dimethylbenzyl)-3-{[(4-hydroxy-3-methoxybenzyl)amino]carbothioyl}propyl 3,4-Dimethylbenzoate [7b-VI] | +++ | 150 | 2 | 50 | 0.06 | Ki ([4]; read-out: Affinities (Ki)): 184 nM |
| COCOc1ccc(CNC(=S)NCC(COC(=O)C(C)(C)C)Cc2ccccc2)cc1OC (stereo not shown) [compound 10] | ++ | – | – | – | – | Ki [4]: 146 nM |
| 2-(3,4-Dimethylbenzyl)-3-{[(4-hydroxy-3-methoxybenzyl)amino]carbothioyl}propyl benzoate [7b-V] | ++ | 43 | 7 | 50 | 0.06 | Ki ([4]; read-out: Affinities (Ki)): 409 nM |
| CN1CC[C@]23c4c5ccc(O)c4O[C@H]2[C@@H](O)C=C[C@H]3[C@H]1C5 [Morphine, reference compound] | – | 0.3 | – | – | – | ED50 [2]: 1 mg/kg |
| COc1cc(CC(=O)NCC(COC(=O)C(C)(C)C)Cc2ccc(C(C)(C)C)cc2)ccc1OCCN (stereo not shown) [28b, 2,2-Dimethyl Propionic Acid 2-({2-[4-(2-Aminoethoxy)-3-methoxyphenyl]acetylamino}methyl)-3-(4-t-butylphenyl)propyl Ester] | – | – | – | – | – | EC50 [5]: 878 ± 170 nM; ED50 [6]: 0.00812 mg/kg |
| 2-Benzyl-3-{[(4-hydroxy-3-methoxybenzyl)amino]carbothioyl}propyl Pivalate [7a-I] | +++ | 150 | 2 | 25 | 0.12 | – |
| COc1cc(CNC(=S)NCC(COC(=O)C(C)(C)C)Cc2ccc(C(C)(C)C)cc2)ccc1OC(=O)CCC(=O)O (stereo not shown) [23b, Succinic Acid Mono-(4-{3-[3-(4-t-butyl-phenyl)-2-(2,2-dimethylpropionyloxymethyl)-propyl]-thioureidomethyl}-2-methoxy-phenyl) Ester] | – | – | – | – | – | EC50 [5]: 7000 ± 1200 nM; ED50 [6]: 0.06 mg/kg |
| 2-Benzyl-3-{[(4-hydroxy-3-methoxybenzyl)amino]carbothioyl}propyl Stearate [7a-IV] | + | 15 | 20 | – | – | Ki ([4]; read-out: Affinities (Ki)): 1870 nM |
| COCOc1ccc(CNC(=S)NCC(COC(=O)C(C)(C)C)Cc2ccc(C)c(C)c2)cc1OC (stereo not shown) [7b-Ia] | – | – | – | – | – | Ki [4]: 876 nM |
| (S)-2-Benzyl-3-{[(4-hydroxy-3-methoxybenzyl)amino]carbothioyl}propyl Pivalate [(S)-7a-I] | ++ | 33 | 9 | – | – | – |
| 2-Benzyl-3-{[(4-hydroxy-3-methoxybenzyl)amino]carbothioyl}propyl Benzoate [7a-V] | ++ | 15 | 20 | 20 | 0.15 | % Reduction of response to 0.001% capsaicin [7]: 0 (0.1) % |
| COc1cc(CC(=O)NCC(COC(=O)C(C)(C)C)Cc2ccc(C)c(C)c2)ccc1OCCN (stereo not shown) [28a, 2,2-Dimethyl Propionic Acid 2-({2-[4-(2-Aminoethoxy)-3-methoxyphenyl]acetylamino}methyl)-3-(3,4-dimethylphenyl)propyl Ester] | – | – | – | – | – | EC50 [5]: 1570 ± 230 nM; ED50 [6]: 0.00096 mg/kg; analgesic activity (in words) ([6]; mouse, in vivo): the most potent one and more potent than DA-5018 |
| COc1cc(CNC(=S)NCC(COC(=O)C(C)(C)C)Cc2ccc(C(C)(C)C)cc2)ccc1OCC(=O)O (stereo not shown) [19b, 2,2-Dimethyl-propionic Acid 3-(4-t-Butyl-phenyl)-2-[3-(4-carboxymethoxy-3-methoxy-benzyl)-thioureidomethyl]-propyl Ester] | – | – | – | – | – | EC50 [5]: 12300 ± 1580 nM; ED50 [6]: 0.365 mg/kg |
| COc1cc(CNC(=S)NCC(COC(=O)C(C)(C)C)Cc2ccc(C)c(C)c2)ccc1OCC(=O)O (stereo not shown) [19a, 2,2-Dimethyl-propionic Acid 2-[3-(4-Carboxymethoxy-3-methoxy-benzyl)-thioureidomethyl]-3-(3,4-dimethyl-phenyl)-propyl Ester] | – | – | – | – | – | EC50 [5]: 7770 ± 800 nM; ED50 [6]: 0.431 mg/kg |
| CCCCCCCC/C=C\CCCCCCCC(=O)NCc1ccc(O)c(OC)c1 [Olvanil, reference compound] | – | 10 | – | 30 | 0.1 | ED50 [2]: 0.03 mg/kg; ED50 [6]: 0.0174 mg/kg; antiinflammatory activity in the TPA ear edema assay (in words) [3]: weak topical activity; % Reduction of response to 0.001% capsaicin [7]: 0.1%; MPP: moderate pain-producing potency [7]: WP^c |
| COc1cc(CNC(=S)NC[C@H](COC(=O)C(C)(C)C)Cc2ccccc2)ccc1O [(R)-7a-I] | +++ | 38 | – | – | – | ED50 [2]: 0.008 mg/kg; Ki [4]: 18.4 nM |
| COc1cc(CNC(=O)CCCC/C=C/C(C)C)ccc1O [Capsaicin, reference compound] | – | – | – | 3 | – | ED50 [2]: 0.3 mg/kg; EC50 [5]: 435 nM; antiinflammatory activity in the TPA ear edema assay (in words) [3]: strong anti-edema activity; % Reduction of response to 0.001% capsaicin [7]: 55 (0.1) % and 35 (0.01) %; MPP: moderate pain-producing potency [7]: 0.0003%; response to 0.001% CAP challenge 6 h posttreatment (in words) [7]: attenuated eye-wiping response |
| 2-(4-t-Butylbenzyl)-3-{[(4-hydroxy-3-methoxybenzyl)amino]carbothioyl}propyl Pivalate [7d-I] | ++ | 300 | 1 | 5 | 0.6 | % Reduction of response to 0.001% capsaicin [7]: 0 (0.1) %; MPP: moderate pain-producing potency [7]: 0.003%; RPP: relative pain-producing potency [7]: 10; times more potent than CAP (receptor binding) [4]: ~490 times |
| COc1cc(CNC(=S)NCC(COCc2ccccc2)Cc2ccc(Cl)cc2)ccc1O (stereo not shown) [9c, N-[3-Benzyloxy-2-(4-chlorobenzyl)propyl]-N′-(4-hydroxy-3-methoxybenzyl)thiourea] | ++ | – | – | – | – | Ki [4]: 659 nM |
| 2-(3,4-Dimethylbenzyl)-3-{[(4-hydroxy-3-methoxybenzyl)amino]carbothioyl}propyl Pivalate [7b-I] | ++ | 600 | 0.5 | 18 | 0.17 | MPP: moderate pain-producing potency [7]: 0.002%; RPP: relative pain-producing potency [7]: 15; times more potent than CAP (receptor binding) [4]: ca. 280 times |
| COc1cc(CNC(=S)NCC(COC(=O)C(C)C)Cc2ccccc2)ccc1O (stereo not shown) [7a-II, 2-Benzyl-3-{[(4-hydroxy-3-methoxybenzyl)amino]carbothioyl}propyl 2-Methyl Propanoate] | +++ | 20 | – | – | – | ED50 [2]: 0.015 mg/kg; Ki [4]: 133 nM |
| COc1ccc2c(c1)c(CC(=O)O)c(C)n2C(=O)c1ccc(Cl)cc1 [Indomethacin, reference compound] | – | 0.75 | – | – | – | ED50 [2]: 0.4 mg/kg |
| CC(=O)Oc1ccccc1C(=O)O [Aspirin, reference compound] | – | 0.086 | – | – | – | ED50 [2]: 3.5 mg/kg |
| 2-Benzyl-3-{[(4-hydroxy-3-methoxybenzyl)amino]carbothioyl}propyl Hexanoate [7a-III] | ++ | 60 | 5 | – | – | Ki ([4]; read-out: Affinities (Ki)): 632 nM |
| 2-(4-t-Butylbenzyl)-3-{[(4-hydroxy-3-methoxybenzyl)amino]carbothioyl}propyl Benzoate [7d-V] | ++ | 200 | 1.5 | 30 | 0.1 | Ki ([4]; read-out: Affinities (Ki)): 60.2 nM |
| COc1cc(CNC(=S)NCC(COCc2ccccc2)Cc2ccccc2)ccc1O (stereo not shown) [9a, N-[2-Benzyl-3-(benzyloxy)propyl]-N′-(4-hydroxy-3-methoxybenzyl)thiourea] | ++ | – | – | – | – | Ki [4]: 148 nM |
| C=C(C)[C@]12C[C@@H](C)[C@@]34O[C@](Cc5ccccc5)(O[C@@H]1[C@@H]3C=C(COC(=O)Cc1ccc(O)c(OC)c1)C[C@]1(O)C(=O)C(C)=C[C@@H]41)O2 [RTX, Resiniferatoxin, reference compound] | – | 30,000 | – | 0.002 | 1,500 | MPP: moderate pain-producing potency [7]: 0.0001%; RPP: relative pain-producing potency [7]: 300; pungency, fold more potent than CAP [7]: 3 fold; Ki [4]: 0.023 nM |
| 2-(4-Chlorobenzyl)-3-{[(4-hydroxy-3-methoxybenzyl)amino]carbothioyl}propyl Benzoate [7c-V] | ++ | 25 | 12 | 17 | 0.18 | – |
